Source: US20080090827A1 (Artesian Therapeutics, Inc., priority 2004, published 2008)
pIC50: −log10 of the molar value.

Assays:
[1] = target: Human platelet cyclic AMP phosphodiesterase (PDE3) (Homo sapiens, UniProt Q14432); assay: In vitro assay for measuring cAMP PDE-3 inhibitory activity; type: biochemical; conditions: 10 min at 30° C., n=3
Experimental: Three assays each were performed for each of five test compound concentrations, the mean of the determinations (n=3) at each concentration was plotted, and IC50 values were determined graphically.

[2] = target: T1, human recombinant beta-2 receptors expressed in CHO-WT21 cells (Homo sapiens, UniProt P07550); assay: Radioligand binding for β2-receptor affinity ([125I](−)Iodocyanopindolol); conditions: at a concentration of 100 nM, read-out: inhibition of β1-adrenergic binding (as printed, β2-receptor assay)
T1 construct: expressed in transfected cells; host or cells: CHO-WT21 cells
Experimental: (§1) β2-Adrenergic receptor binding was measured in human recombinant beta-2 receptors expressed in CHO-WT21 cells, using [^125I] (−) Iodocyanopindolol (2000 Ci/mmol) as the radioligand, as described in Kalaria et al. (1998) and Minneman et al. (1979), supra. Compounds 17d, 21, 31b, 46a, and 46b each inhibited greater than 25% β1-adrenergic binding at a concentration of 100 nM.

[3] = target: T2, human recombinant beta-1 receptors expressed in CHO-REX16 cells (Homo sapiens, UniProt P08588); assay: Radioligand binding for β1-receptor affinity ([125I](−)Iodocyanopindolol); conditions: at a concentration of 100 nM; read-out: inhibition of β1-adrenergic binding
T2 construct: expressed in transfected cells; host or cells: CHO-REX16 cells
Experimental: as §1, with “β1-Adrenergic” for “β2-Adrenergic”, “beta-1” for “beta-2”, “CHO-REX16” for “CHO-WT21”, “al., J. Neurochem. 53: 1772-81 (1998),” for “al. (1998)”, “al., Mol. Pharmacol. 16: 34-46 (1979).” for “al. (1979), supra.”

T1 sequence (P07550 whole entry): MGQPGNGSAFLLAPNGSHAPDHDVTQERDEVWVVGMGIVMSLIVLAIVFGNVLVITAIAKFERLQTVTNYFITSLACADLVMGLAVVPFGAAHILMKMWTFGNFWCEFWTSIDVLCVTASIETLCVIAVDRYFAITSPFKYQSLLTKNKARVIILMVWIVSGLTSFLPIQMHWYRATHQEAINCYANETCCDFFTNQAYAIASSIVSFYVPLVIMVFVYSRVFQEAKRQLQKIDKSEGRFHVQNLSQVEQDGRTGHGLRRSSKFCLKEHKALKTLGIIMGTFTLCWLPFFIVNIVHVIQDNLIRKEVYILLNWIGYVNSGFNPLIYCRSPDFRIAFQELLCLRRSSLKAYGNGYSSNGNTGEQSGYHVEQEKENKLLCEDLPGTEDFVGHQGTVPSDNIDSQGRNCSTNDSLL
Chain of Human platelet cyclic AMP phosphodiesterase (PDE3) (Q14432 whole entry): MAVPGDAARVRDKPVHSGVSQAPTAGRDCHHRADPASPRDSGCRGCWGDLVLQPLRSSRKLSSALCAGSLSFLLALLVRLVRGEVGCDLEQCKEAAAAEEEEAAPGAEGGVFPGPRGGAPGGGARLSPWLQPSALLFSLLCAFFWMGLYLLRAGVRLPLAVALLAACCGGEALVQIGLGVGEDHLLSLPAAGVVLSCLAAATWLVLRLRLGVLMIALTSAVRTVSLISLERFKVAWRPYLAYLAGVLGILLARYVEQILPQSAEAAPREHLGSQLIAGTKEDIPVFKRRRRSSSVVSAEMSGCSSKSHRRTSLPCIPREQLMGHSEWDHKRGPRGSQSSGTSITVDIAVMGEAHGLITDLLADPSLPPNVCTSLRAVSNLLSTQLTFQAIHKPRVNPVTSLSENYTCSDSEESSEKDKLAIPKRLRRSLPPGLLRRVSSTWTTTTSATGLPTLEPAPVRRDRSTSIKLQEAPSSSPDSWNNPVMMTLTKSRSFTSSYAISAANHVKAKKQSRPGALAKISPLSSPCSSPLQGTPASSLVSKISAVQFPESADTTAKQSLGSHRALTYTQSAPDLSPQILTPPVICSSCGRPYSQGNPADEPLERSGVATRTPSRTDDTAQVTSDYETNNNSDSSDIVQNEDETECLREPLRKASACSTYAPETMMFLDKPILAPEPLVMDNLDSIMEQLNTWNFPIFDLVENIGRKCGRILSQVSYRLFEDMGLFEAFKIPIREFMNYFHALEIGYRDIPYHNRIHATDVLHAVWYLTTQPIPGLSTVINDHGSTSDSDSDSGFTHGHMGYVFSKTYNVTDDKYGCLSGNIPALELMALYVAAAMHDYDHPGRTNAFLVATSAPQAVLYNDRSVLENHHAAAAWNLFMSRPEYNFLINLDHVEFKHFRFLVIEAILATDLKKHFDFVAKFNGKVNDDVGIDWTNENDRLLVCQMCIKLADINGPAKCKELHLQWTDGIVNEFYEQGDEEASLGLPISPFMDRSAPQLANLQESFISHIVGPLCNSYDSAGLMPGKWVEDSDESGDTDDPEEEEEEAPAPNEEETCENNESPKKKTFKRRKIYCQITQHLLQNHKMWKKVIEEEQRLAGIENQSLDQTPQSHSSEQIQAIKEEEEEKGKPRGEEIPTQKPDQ
T2 sequence (P08588 whole entry): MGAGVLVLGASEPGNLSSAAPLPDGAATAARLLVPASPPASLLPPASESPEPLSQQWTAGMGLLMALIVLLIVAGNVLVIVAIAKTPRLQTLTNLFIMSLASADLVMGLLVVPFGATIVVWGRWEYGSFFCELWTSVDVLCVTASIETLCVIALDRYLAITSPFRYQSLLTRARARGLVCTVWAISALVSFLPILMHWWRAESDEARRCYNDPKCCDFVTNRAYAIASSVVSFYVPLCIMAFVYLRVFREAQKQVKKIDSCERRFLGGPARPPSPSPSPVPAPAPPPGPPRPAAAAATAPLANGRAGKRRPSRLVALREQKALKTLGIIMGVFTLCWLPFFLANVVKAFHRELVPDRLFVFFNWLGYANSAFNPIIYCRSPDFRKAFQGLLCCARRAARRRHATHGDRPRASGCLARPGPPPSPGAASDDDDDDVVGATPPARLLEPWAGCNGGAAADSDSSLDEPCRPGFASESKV

Row | SMILES | pIC50 [1] | inhibition at 0.1 µM [2] [%] | inhibition at 0.1 µM [3] [%]
1 | CC(C)NC[C@H](O)COc1ccc(CCC(=O)NCCNC(=O)COc2ccc(C3=NNC(=O)CC3)cc2Cl)cc1 [Compound 7] | > 7.00 |  | 
2 | CC(C)NC[C@H](O)COc1ccc(C(=O)NCCNC(=O)COc2ccc(C3=NNC(=O)CC3)cc2Cl)cc1 [Compound 12a] | > 6.00 |  | 
3 | CC(C)NC[C@H](O)COc1ccc(CC(=O)NCCNC(=O)COc2ccc(C3=NNC(=O)CC3)cc2Cl)cc1 [Compound 12b, N-(2-{2-[2-Chloro-4-(6-oxo-1,4,5,6-tetrahydropyridazin-3-yl)-phenoxy]-acetylamino}-ethyl)-2-(4-((S)-2-hydroxy-3-isopropylamino-propoxy)-phenyl]-acetamide] | > 7.00 |  | 
4 | CC(C)(C)NC[C@H](O)COc1ccc(C(=O)NCCNC(=O)COc2ccc(C3=NNC(=O)CC3)cc2Cl)cc1 [Compound 13, 4-((S)-3-tert-Butylamino-2-hydroxy-propoxy)-N-(2-{2-[2-chloro-4-(6-oxo-1,4,5,6-tetrahydropyridazin-3-yl)-phenoxy]-acetylamino}-ethyl)-benzamide] | > 6.00 |  | 
5 | CC(C)NCC(O)COc1ccc(CNC(=O)COc2ccc(C3=NNC(=O)CC3)cc2Cl)cc1 (stereo not shown) [Compound 17a, 2-[2-Chloro-4-(6-oxo-1,4,5,6-tetrahydro-pyridazin-3-yl)-phenoxy]-N-[4-(2-hydroxy-3-isopropylamino-propoxy)-benzyl]-acetamide] | > 6.00 |  | 
6 | CC(C)(C)NCC(O)COc1ccc(CNC(=O)COc2ccc(C3=NNC(=O)CC3)cc2Cl)cc1 (stereo not shown) [Compound 17b, N-[4-(3-tert-Butylamino-2-hydroxy-propoxy)-benzyl]-2-[2-chloro-4-(6-oxo-1,4,5,6-tetrahydro-pyridazin-3-yl)-phenoxy]-acetamide] | > 6.00 |  | 
7 | CC(C)NCC(O)COc1ccc(CCNC(=O)COc2ccc(C3=NNC(=O)CC3)cc2Cl)cc1 (stereo not shown) [Compound 17c, 2-[2-Chloro-4-(6-oxo-1,4,5,6-tetrahydro-pyridazin-3-yl)-phenoxy]-N-{2-[4-(2-hydroxy-3-isopropylamino-propoxy)-phenyl]-ethyl}-acetamide] | > 7.00 |  | 
8 | CC(C)(C)NCC(O)COc1ccc(CCNC(=O)COc2ccc(C3=NNC(=O)CC3)cc2Cl)cc1 (stereo not shown) [Compound 17d, N-{2-[4-(3-tert-Butylamino-2-hydroxy-propoxy)-phenyl]-ethyl}-2-[2-chloro-4-(6-oxo-1,4,5,6-tetrahydro-pyridazin-3-yl)-phenoxy]-acetamide] | > 7.00 | > 25 | > 25
9 | CC(C)(C)NC[C@H](O)COc1ccc(CCNC(=O)COc2ccc(C3=NNC(=O)CC3)cc2)cc1 [Compound 21, N-{2-[4-((S)-3-tert-butylamino-2-hydroxy-propoxy)-phenyl]-ethyl}-2-[4-(6-oxo-1,4,5,6-tetrahydro-pyridazin-3-yl)-phenoxy]-acetamide] | > 6.00 | > 25 | > 25
10 | CC(C)NCC(O)COc1ccc(COCCCOc2ccc(C3=NNC(=O)CC3)cc2Cl)cc1 (stereo not shown) [Compound 31a, 6-(3-Chloro-4-{3-[4-(2-hydroxy-3-isopropylamino-propoxy)-benzyloxy]-propoxy}-phenyl)-4,5-dihydro-2H-pyridazin-3-one] | > 6.00 |  | 
11 | CC(C)(C)NCC(O)COc1ccc(COCCCOc2ccc(C3=NNC(=O)CC3)cc2Cl)cc1 (stereo not shown) [Compound 31b, 6-(4-{3-[4-(3-tert-Butylamino-2-hydroxy-propoxy)-benzyloxy]-propoxy}-3-chloro-phenyl)-4,5-dihydro-2H-pyridazin-3-one] | > 7.00 | > 25 | > 25
12 | CC(C)NCC(O)COc1ccc(CCOc2ccc(C3=NNC(=O)CC3)cc2Cl)cc1 (stereo not shown) [Compound 37a, 6-(3-Chloro-4-{2-[4-(2-hydroxy-3-isopropylamino-propoxy)-phenyl]-ethoxy}-phenyl)-4,5-dihydro-2H-pyridazin-3-one] | > 7.00 |  | 
13 | CC(C)(C)NCC(O)COc1ccc(CCOc2ccc(C3=NNC(=O)CC3)cc2Cl)cc1 (stereo not shown) [Compound 37b, 6-(4-{2-[4-(3-tert-Butylamino-2-hydroxy-propoxy)-phenyl]-ethoxy}-3-chloro-phenyl)-4,5-dihydro-2H-pyridazin-3-one] | > 7.00 |  | 
14 | CC(C)NC[C@H](O)COc1ccc(CCOCCCOc2ccc(C3=NNC(=O)CC3)cc2Cl)cc1 [Compound 46a, 6-[3-Chloro-4-(3-{2-[4-((S)-2-hydroxy-3-isopropylamino-propoxy)-phenyl]-ethoxy}-propoxy)-phenyl]-4,5-dihydro-2H-pyridazin-3-one] | > 7.00 | > 25 | > 25
15 | CC(C)(C)NC[C@H](O)COc1ccc(CCOCCCOc2ccc(C3=NNC(=O)CC3)cc2Cl)cc1 [Compound 46b, 6-[4-(3-{2-[4-((S)-3-tert-Butylamino-2-hydroxy-propoxy)-phenyl]-ethoxy}-propoxy)-3-chloro-phenyl]-4,5-dihydro-2H-pyridazin-3-one] | > 7.00 | > 25 | > 25
